Key:
[1] = test system: rat smooth muscle cells (RSMC); assay: Chemotaxis assay, rat smooth muscle cells; format: cell-based; conditions: RSMC; for inhibition of D2A-induced RSMC migration: attractant D2A; for inhibition of VN-induced RSMC migration: attractant VN
Protocol: Chemotaxis assay was performed as described (Degryse et al., 1999, 2001a, 2001b) with modified Boyden chambers. Filters (5 μm pore size, Neuro Probe, Gaithersburg, Md.) were treated with collagen I (100 μg/ml) and fibronectin (10 μg/ml, Roche).≈40-50,000 cells in serum-free DMEM were added to the upper well and the chemoattractants tested added to the lower well. When present, antibodies, or inhibitors were added in both wells. After overnight migration at 37° C., cells remaining on the upper surface of filters were scraped off and filters were fixed in methanol and stained in a solution of 10% (w/v) crystal violet in 20% (v/v) methanol. The experiments were performed at least twice in triplicate and the results, expressed as fold over control, are the mean ±SD of the number of cells counted in ten high power fields per filter. Random cell migration, i.e. migration in the absence of chemoattractant, was given the arbitrary value of 100%.

[2] = test system: human HT1080 fibrosarcoma cells; assay: Matrigel invasion assay; format: cell-based; conditions: for stimulation of Matrigel invasiveness of HT1080 cells: substance alone, 24 hours at 37° C.
[3] = test system: KG-1 cells; assay: Chemotaxis assay of non adherent cells, Boyden micro-chamber; format: cell-based, human
Protocol: Chemotaxis assay of non adherent cells was performed as described (Degryse et al., 2001; FEBS lett. 505: 249-254) using modified Boyden micro-chamber with the exception that the filter was not treated. 50,000 cells were added in the top well in serum-free RPMI medium and allowed to migrate for 1 hour at 37° C. The molecules to be tested as chemoattractant were diluted in serum-free RPMI medium and added in the lower well of the Boyden chamber. Experiments were performed in triplicate. Results are the mean ±SD of the number of cells counted in five high power fields. Migration in the absence of chemoattractant is referred to as 100%.

[4] = test system: Rat Smooth Muscle Cells and HT1080 Human Fibrosarcoma Cells; assay: Boyden chamber assays, pleiotropic inhibition of chemotaxis; format: cell-based
From the text: In Boyden chamber assays, D2A-Ala and GAAG inhibit not only VN-dependent and uPA-dependent chemotaxis (as reported above), but also EGF— and UTP-dependent chemotaxis. The effect is dose-dependent. Notice that the EGF-dependent and the UTP-dependent chemotaxis work through receptors (EGF-receptor and P2Y2 receptor, respectively), that are different among themselves and are different from those employed by uPA (uPAR) and VN (αvβ3). We conclude that these two inhibitors are general inhibitors of chemotaxis.

[5] = HT1080, at about the same concentration (around 1 pM)

N#C/C(=C/c1ccc(O)c(O)c1)C(=O)NCc1ccccc1 [AG-490, reference compound]
inhibition of D2A-induced RSMC migration [1]: inhibited | inhibition of VN-induced RSMC migration [1]: inhibited

COc1cccc(-c2cc(=O)c3ccccc3o2)c1N [PD98059, reference compound]
inhibition of D2A-induced RSMC migration [1]: Neither VN- nor D2A-induced cell migration were blocked | inhibition of VN-induced RSMC migration [1]: Neither VN- nor D2A-induced cell migration were blocked

GAAG (Amino acid sequence motif) [shorter version of D2A-Ala]
inhibition of EGF-dependent invasion ([2]; HT1080, 100 pM): inhibit | inhibition of insulin-dependent invasion ([2]; HT1080, 100 pM): inhibit | inhibition of VN-induced invasiveness [2, 5]: inhibit | inhibition of uPA-induced invasiveness [2, 5]: inhibit | inhibition of FN-induced invasion ([2]; HT1080, at the same concentration): inhibit | stimulation of Matrigel invasiveness of HT1080 cells [2]: have no effects | inhibition of vitronectin (VN)-induced chemotaxis of KG-1 cells [3]: inhibited | inhibition of VN-dependent chemotaxis [4]: inhibit | inhibition of uPA-dependent chemotaxis [4]: inhibit | inhibition of EGF-dependent chemotaxis ([4]; dose-dependent): inhibit | inhibition of UTP-dependent chemotaxis ([4]; dose-dependent): inhibit

GEEG
concentration of peak stimulation of Matrigel invasiveness ([2]; HT1080, dose-dependent): around 1 pM | stimulation of Matrigel invasiveness of HT1080 cells [2]: stimulate

RDDKPRGEEGEQI [D2B]
stimulation of RSMC migration (chemotactic activity) [1]: equally active in stimulating migration | chemotaxis of KG-1 cells ([3]; peptide as chemoattractant, 1 hour at 37° C.): also promotes the migration
